The text below walks through data of paper PMC5755735, “Discovery of indolylpiperazinylpyrimidines with dual-target profiles at adenosine A2A and dopamine D2 receptors for Parkinson's disease treatment” (PLoS ONE, 2018).

Data set [1] concerns the target human dopamine D2 receptor (Homo sapiens, UniProt P14416). The data set can be described thus: D2R-proteopolymersomes-based fluorescence competition assay with BODIPY-NAPS. The data set is classed as binding. Set-up: made in house; host or cells: in vitro (cell-free) synthesis, inserted into polymersomes. As to conditions: + D2-ACM (D2R-proteopolymersomes); read-out: EC50 (D2 receptor, displacement of BODIPY-NAPS).
Method: For the replacement assay, ABA-polymersomes were covalently attached to an amino-functionalized glass slide, which was then treated with isopropanol, ultrapure water and a N2-stream. […] Program ImageJ was used for determination of fluorescence intensities.

Data set [2] deals with Salmonella strains TA98 and TA100. The data set can be described thus: Ames mutagenicity test. Type of data set: cell-based, Salmonella typhimurium. As to conditions: 10 μM and 100 μM; TA98 and TA100, +S9 and –S9. Here is the method:
In the toxicity studies, in vitro assays for mutagenicity and cytotoxicity were performed on compounds 5 and 6. These compounds were investigated for their mutagenic potential through the Ames assay. Two Salmonella strains TA98 and TA100 with pre-existing mutations (His^-) were selected. Both strains are unable to synthesize histidine (one of the growth requirements for these strains) and therefore cannot form colonies on the agar plate.
Together with the compounds, the Salmonella strains were incubated in the presence (+S9) and absence (–S9) of a metabolizing system “S9 mix” consisting of 9000 g supernatant fraction of rat liver microsomes, nicotinamide adenine dinucleotide phosphate (NADP) and cofactors. Exogenous “S9 mix” was included due to the lack of CYP metabolizing enzymes in Salmonella typhimurium. In the assay, agar plates +S9 and–S9 were used to detect pro-mutagens for cases where the native chemical was not mutagenic but its metabolites were mutagens, and direct-acting mutagens, respectively. […]
In vitro mutagenicity was performed using a modified Ames Test protocol according to manufacturer’s instructions (MolTox). […] The cultures were then measured for absorbance with a UV spectrophotometer at 660 nm and to be used at a density of approximately 1.0 to 1.2 absorbance units. […] Images of colonies were captured and counted with the aid of ImageJ software.

Data set [3] relates to TAMH (TGF-α overexpressing mouse hepatocytes). Kind of data set: cell viability assay in TAMH hepatocytes (Cell-Titer-Glo). Type of data set: cell-based. As to conditions: concentrations less than 30 μM, 24 h. Here is the method:
(§1) Besides the mutagenicity study, compounds 5 and 6 were also subjected to cell viability assays using transforming growth factor-alpha mouse hepatocyte (TAMH) and HL-1 cardiomyocyte to assess the cytotoxic potential. TAMH lines were treated with compounds 5 and 6 in eight different concentrations (100 μM, 33.3 μM, 11.1 μM, 3.7 μM, 1.23 μM, 0.41 μM, 0.13 μM, 0.045 μM), and the percentage of viable cells was plotted against the logarithm of ligand concentration (S10B and S10C Fig). […] Acetaminophen, a drug with direct hepatotoxic potential, was used as the positive control in this assay (S10A Fig). […] Doxorubicin, a chemotherapeutic agent known to cause dose-dependent cardiotoxicity, was used as the positive control in this assay (S10D Fig).
(§2) Immortalised hepatocyte and cardiomyocyte cell lines, TAMH (TGF-α overexpressing mouse hepatocytes) and HL-1 were used respectively as models for in vitro toxicity studies. Both cell lines were cultured in accordance with previously described methods. […] The cell-reagent mixture was transferred to a solid white flat-bottom 96-well plate (Greiner 655207) for luminescence reading. Luminescence was recorded with an integration time of 0.25 second with a Tecam Infinite® M200 Microplate reader. Data are expressed as percentage of viable cells compared to DMSO-treated controls. […]

The next data set relates to HL-1 cardiomyocyte. The data set can be described thus: cell viability assay in HL-1 cardiomyocytes (Cell-Titer-Glo). As to conditions: concentrations less than 30 μM, 24 h. Type of data set: cell-based. The protocol: as §1, §2

“And” between values parts separate entries of the source, which are not always exact repeats. Equal values may be shown once.

Sequence of human dopamine D2 receptor (P14416 whole entry): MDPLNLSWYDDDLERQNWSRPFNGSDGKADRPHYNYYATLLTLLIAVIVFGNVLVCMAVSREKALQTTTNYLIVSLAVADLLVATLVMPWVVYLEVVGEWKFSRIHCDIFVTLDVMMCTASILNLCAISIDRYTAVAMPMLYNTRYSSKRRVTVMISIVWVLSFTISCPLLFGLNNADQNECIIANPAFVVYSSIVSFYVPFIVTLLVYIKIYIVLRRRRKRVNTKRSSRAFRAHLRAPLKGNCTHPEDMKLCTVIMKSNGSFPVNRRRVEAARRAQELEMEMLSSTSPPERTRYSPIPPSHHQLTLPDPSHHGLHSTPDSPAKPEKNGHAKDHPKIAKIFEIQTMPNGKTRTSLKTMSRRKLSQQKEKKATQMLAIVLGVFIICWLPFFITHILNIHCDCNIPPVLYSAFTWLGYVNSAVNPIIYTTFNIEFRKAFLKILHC

Turning to `Cc1cc(C)nc(N2CCN(C(=O)Cc3c(C)[nH]c4ccccc34)CC2)n1` [Compound 6, 1‐[4‐(4,6‐Dimethylpyrimidin‐2‐yl)piperazin‐1‐yl]‐2‐(2‐methyl‐1H‐indol‐3‐yl)ethan‐1‐one], the EC50 in data set [1] was 22.5 to 40.2 µM and 40.2 µM. Further, the “mutagenicity (number of His+ revertants)” value in data set [2] is on record as “no significant mutagenicity”. For the same compound, the results for the “cytotoxicity (cell viability)” value (in data set [3]; with HL-1 cardiomyocyte) were “non-cytotoxic” and “no toxicity observed”, respectively.

Consider `Cc1cc(C)nc(N2CCN(C(=O)c3c[nH]c4ccccc34)CC2)n1` [Compound 5, 3‐[4‐(4,6‐Dimethylpyrimidin‐2‐yl)piperazine‐1‐carbonyl]‐1H‐indole], for which the EC50 in data set [1] was 22.5 to 40.2 µM and 22.5 µM. Further, in data set [2], the “mutagenicity (number of His+ revertants)” value is “no significant mutagenicity”. Moreover, the “cytotoxicity (cell viability)” value is given as “non-cytotoxic” in data set [3] and “no toxicity observed” in the data set on HL-1 cardiomyocyte.
